In patent US12522607B2, “Substituted pyrazolo[3,4-d]pyrimidines as wee-1 inhibitors” (WIGEN BIOMEDICINE TECHNOLOGY (SHANGHAI) CO., LTD., priority 2020, dated 2026):
pIC50: −log10 of the molar value.

Legend:
Wee-1 kinase = target: T1, Wee-1 kinase (Homo sapiens, UniProt P30291); experiment: Inhibitory activity against Wee-1 kinase (Lanthra Screen Wee-1 kinase kit, Tracer 178); format: binding; details: Wee-1 kinase 5 nM, Tracer 178 50 nM, 1 h room temperature
T1 construct: purchased Invitrogen
Description: Example 342. Assay for Inhibitory Activity of Compounds Against Wee-1 Kinase
The inhibitory activity of compounds against Wee-1 kinase was determined by using the Lanthra Screen Wee-1 kinase kit (Invitrogen). 5 μL of the compound diluted in a gradient with DMSO, 5 μL. of Wee-1 kinase (at a final concentration of 5 nM), 5 μL of an Eu-Anti-GST antibody (at a final concentration of 2 nM) mixture and 5 μL of kinase Tracer 178 (at a final concentration of 50 nM) were mixed well. The plate was read after incubation at room temperature for one hour. For comparison with the DMSO solvent control group, IC50 for the inhibition activity of the compounds against Wee-1 kinase was calculated.

HT29 cells = experiment: Antiproliferative activity against HT29 cells (Cell Titer-Lumi, ATP content); format: cell-based; details: Homo sapiens, HT-29, 72 after compound addition, read-out: HT-29 cells Anti-proliferative activity (IC50 for the inhibition against HT-29 cell growth)
Description: Example 343. Assay for Antiproliferative Activity Against HT29 Cells
3000 HT29 cells were seed in a 384-well plate (Fisher 142762). After the cells adhered to the wall overnight, the compounds diluted in a gradient were added. 72 later, Cell Titer-Lumi (Beyotime C0068XL) was added to determine the content of ATP in the cells. The growth of the cells was evaluated, and the IC50 for the inhibition of the compounds against cell growth was calculated.

T1 sequence (P30291 whole entry): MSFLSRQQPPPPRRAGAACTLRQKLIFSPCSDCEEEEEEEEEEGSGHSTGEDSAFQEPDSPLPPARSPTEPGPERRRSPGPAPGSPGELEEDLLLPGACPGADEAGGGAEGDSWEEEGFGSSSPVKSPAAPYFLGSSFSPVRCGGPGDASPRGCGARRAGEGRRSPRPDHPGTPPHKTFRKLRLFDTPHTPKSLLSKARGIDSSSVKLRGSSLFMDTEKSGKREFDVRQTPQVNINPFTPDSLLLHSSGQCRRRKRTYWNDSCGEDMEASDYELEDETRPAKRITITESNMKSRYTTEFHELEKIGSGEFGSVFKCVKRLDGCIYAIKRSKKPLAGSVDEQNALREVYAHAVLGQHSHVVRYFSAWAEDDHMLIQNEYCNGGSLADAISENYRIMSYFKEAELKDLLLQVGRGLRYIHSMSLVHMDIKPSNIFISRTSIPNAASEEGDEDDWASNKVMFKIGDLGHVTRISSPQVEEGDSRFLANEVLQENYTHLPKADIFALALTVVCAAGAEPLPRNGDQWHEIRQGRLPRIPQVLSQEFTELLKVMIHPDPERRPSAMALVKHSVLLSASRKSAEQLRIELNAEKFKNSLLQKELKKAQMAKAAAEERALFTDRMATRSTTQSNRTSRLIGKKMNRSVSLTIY

Row | SMILES | pIC50 (Wee-1 kinase) | pIC50 (HT29 cells)
1 | C=CCn1c(=O)c2cnc(Nc3ccc(N4CCC5(CC4)CNC5)c(C)c3)nc2n1-c1ccc(=O)n(C(C)C)n1 [Compound 176] | ≥ 7.52 | ≥ 6.00
2 | CC(C)n1cc(-n2c3nc(Nc4ccc(N5CCN(C)CC5)cc4)ncc3c(=O)n2C2CC2)cc(F)c1=O [Compound 323] | ≥ 7.52 | ≥ 6.00
3 | C=CCn1c(=O)c2cnc(Nc3ccc4c(ccn4C4CCNCC4)c3)nc2n1-c1ccc(=O)n(C(C)C)n1 [Compound 269] | ≥ 7.52 | ≥ 6.00
4 | C=CCn1c(=O)c2cnc(Nc3ccc(N4CCC(N5CCC(F)(F)CC5)CC4)c(OC)c3)nc2n1-c1ccc(=O)n(C(C)C)n1 [Compound 153] | ≥ 7.52 | ≥ 6.00
5 | C=CCn1c(=O)c2cnc(Nc3ccc(C4CCN(C)CC4)c(OC)c3)nc2n1-c1ccc(=O)n(C(C)C)n1 [Compound 195] | ≥ 7.52 | ≥ 6.00
6 | C=CCn1c(=O)c2cnc(Nc3ccc(N4CCN(C)CC4)cc3)nc2n1-c1ccc(=O)n(CC(C)C)n1 [Compound 4] | 7.00 to 7.52 | 5.52 to 6.00
7 | C=CCn1c(=O)c2cnc(Nc3ccc(N4CCC5(CCNCC5)CC4)c(C)c3)nc2n1-c1ccc(=O)n(C(C)C)n1 [Compound 182] | ≥ 7.52 | ≥ 6.00
8 | CCn1c(=O)c2cnc(Nc3ccc(C4CCN(C)CC4)c(C)c3)nc2n1-c1cc(F)c(=O)n(C(C)C)c1 [Compound 317] | ≥ 7.52 | ≥ 6.00
9 | C=CCn1c(=O)c2cnc(Nc3ccc(N4CCN(C)CC4)cc3)nc2n1-c1ccc(=O)n(C(C)(C)CO)n1 [Compound 18] | ≥ 7.52 | 5.52 to 6.00
10 | C=CCn1c(=O)c2cnc(Nc3ccc(N4CCN(C)CC4)cc3)nc2n1-c1ccc(=O)n(C(C)C)c1 [Compound 20] | ≥ 7.52 | ≥ 6.00
11 | C=CCn1c(=O)c2cnc(Nc3ccc(C4CCN(C)CC4)c(C)c3)nc2n1-c1ccc(=O)n(C(C)(C)C)n1 [Compound 282] | ≥ 7.52 | ≥ 6.00
12 | CCn1c(=O)c2cnc(Nc3ccc(C4CCN(C)CC4)c(C)c3)nc2n1-c1ccc(=O)n(C(C)(C)C)n1 [Compound 286] | ≥ 7.52 | ≥ 6.00
13 | Cc1cc(Nc2ncc3c(=O)n(C(C)C)n(-c4ccc(=O)n(C(C)(C)C)n4)c3n2)ccc1N1CCN(C)CC1 [Compound 289] | ≥ 7.52 | ≥ 6.00
14 | C=CCn1c(=O)c2cnc(Nc3ccc(N4CCC(N5CCOCC5)CC4)cc3)nc2n1-c1ccc(=O)n(C(C)C)n1 [Compound 148] | ≥ 7.52 | ≥ 6.00
15 | C=CCn1c(=O)c2cnc(Nc3ccc(N4CCN(C)CC4)c(OC)c3)nc2n1-c1ccc(=O)n(C(C)C)c1 [Compound 48] | ≥ 7.52 | ≥ 6.00
16 | C=CCn1c(=O)c2cnc(Nc3ccc(N4CCC5(CC4)CN(C)C5)c(C)c3)nc2n1-c1ccc(=O)n(C(C)C)n1 [Compound 179] | ≥ 7.52 | ≥ 6.00
17 | C=CCn1c(=O)c2cnc(Nc3ccc(C4CCN(C)CC4)c(C)c3)nc2n1-c1ccc(=O)n(C(C)C)n1 [Compound 193] | ≥ 7.52 | ≥ 6.00
18 | C=CCn1c(=O)c2cnc(Nc3ccc(N4CCN(C)CC4)cc3)nc2n1-c1cc(OC)c(=O)n(C(C)C)c1 [Compound 27] | 7.00 to 7.52 | < 5.52
19 | C=CCn1c(=O)c2cnc(Nc3ccc(N4CC(N5CCC5)C4)c(OC)c3)nc2n1-c1ccc(=O)n(C(C)C)n1 [Compound 82] | ≥ 7.52 | ≥ 6.00
20 | C=CCn1c(=O)c2cnc(Nc3ccc(C4CCN(C)CC4)c(C)c3)nc2n1-c1ccc(=O)n(C(C)(C)C)c1 [Compound 328] | ≥ 7.52 | ≥ 6.00
21 | CC(C)n1c(=O)c2cnc(Nc3ccc(N4CCN(C)CC4)cc3)nc2n1-c1ccc(=O)n(C(C)(C)C)c1 [Compound 334] | ≥ 7.52 | ≥ 6.00
22 | C=CCn1c(=O)c2cnc(Nc3ccc4c(c3)C3(CC3)CNC4)nc2n1-c1ccc(=O)n(C(C)C)n1 [Compound 234] | ≥ 7.52 | ≥ 6.00
23 | C=CCn1c(=O)c2cnc(Nc3ccc(N4CCN(CC#N)CC4)cc3)nc2n1-c1ccc(=O)n(C(C)C)n1 [Compound 40] | ≥ 7.52 | ≥ 6.00
24 | Cc1cc(Nc2ncc3c(=O)n(C4CC4)n(-c4ccc(=O)n(C(C)C)c4)c3n2)ccc1N1CCN(C)CC1 [Compound 308] | ≥ 7.52 | ≥ 6.00
25 | C=CCn1c(=O)c2cnc(Nc3cc(N4CCC(N(C)C)CC4)c4ccn(C)c4c3)nc2n1-c1ccc(=O)n(C(C)C)n1 [Compound 257] | ≥ 7.52 | ≥ 6.00
26 | Cc1cc(Nc2ncc3c(=O)n(C4CC4)n(-c4cc(F)c(=O)n(C(C)C)c4)c3n2)ccc1C1CCN(C)CC1 [Compound 325] | ≥ 7.52 | ≥ 6.00

Row | SMILES | pIC50 (Wee-1 kinase) | pIC50 (HT29 cells)
27 | C=CCn1c(=O)c2cnc(Nc3ccc(N4CC(N(C)C)C4)c(C)c3)nc2n1-c1ccc(=O)n(C(C)C)n1 [Compound 78] | ≥ 7.52 | ≥ 6.00
28 | C=CCn1c(=O)c2cnc(Nc3ccc(N4CC5(CCNC5)C4)cc3)nc2n1-c1ccc(=O)n(C(C)C)n1 [Compound 160] | ≥ 7.52 | 5.52 to 6.00
29 | C=CCn1c(=O)c2cnc(Nc3cc(Cl)c(N4CCNCC4)c(OC)c3)nc2n1-c1ccc(=O)n(C(C)C)n1 [Compound 65] | ≥ 7.52 | ≥ 6.00
30 | C=CCn1c(=O)c2cnc(Nc3ccc(N(C)CCN(C)C)nc3)nc2n1-c1ccc(=O)n(C(C)C)n1 [Compound 246] | ≥ 7.52 | ≥ 6.00
31 | C=CCn1c(=O)c2cnc(Nc3cccc(C4CCN(C)CC4)c3)nc2n1-c1ccc(=O)n(C(C)C)n1 [Compound 205] | ≥ 7.52 | ≥ 6.00
32 | C=CCn1c(=O)c2cnc(Nc3cc(F)c(N4CCNCC4)c(OC)c3)nc2n1-c1ccc(=O)n(C(C)C)n1 [Compound 63] | ≥ 7.52 | ≥ 6.00
33 | C=CCn1c(=O)c2cnc(Nc3ccc(N4CCN(C)CC4)cc3)nc2n1-c1ccc(=O)n(C(C)(C)COC)n1 [Compound 19] | ≥ 7.52 | 5.52 to 6.00
34 | C=CCn1c(=O)c2cnc(Nc3ccc(N4CCC5(CC4)CNC5)c(OC)c3)nc2n1-c1ccc(=O)n(C(C)C)n1 [Compound 177] | ≥ 7.52 | ≥ 6.00
35 | C=CCn1c(=O)c2cnc(Nc3ccc(N4CCN[C@@H](C)C4)c(C)c3)nc2n1-c1ccc(=O)n(C(C)C)n1 [Compound 130] | ≥ 7.52 | ≥ 6.00
36 | CC(C)n1cc(-n2c3nc(Nc4ccc(N5CCN(C)CC5)cc4)ncc3c(=O)n2C(C)C)cc(F)c1=O [Compound 319] | ≥ 7.52 | ≥ 6.00
37 | C=CCn1c(=O)c2cnc(Nc3ccc(N4CCNCC4)c(OC)c3)nc2n1-c1ccc(=O)n(C(C)C)c1 [Compound 47] | ≥ 7.52 | ≥ 6.00
38 | CN1CCN(c2ccc(Nc3ncc4c(=O)n(C5CC5)n(-c5ccc(=O)n(C(C)(C)C)n5)c4n3)cc2)CC1 [Compound 292] | ≥ 7.52 | ≥ 6.00
39 | C=CCn1c(=O)c2cnc(Nc3ccc(N4CC5(CNC5)C4)c(C)c3)nc2n1-c1ccc(=O)n(C(C)C)n1 [Compound 155] | ≥ 7.52 | ≥ 6.00
40 | C=CCn1c(=O)c2cnc(Nc3cc(F)c(N4CCNCC4)c(Cl)c3)nc2n1-c1ccc(=O)n(C(C)C)n1 [Compound 59] | ≥ 7.52 | ≥ 6.00
41 | CCn1c(=O)c2cnc(Nc3ccc4c(c3)CN(C)CC43CC3)nc2n1-c1ccc(=O)n(C(C)C)n1 [Compound 277] | ≥ 7.52 | ≥ 6.00
42 | C=CCn1c(=O)c2cnc(Nc3ccc(N4CC5CCC(C4)N5C)c(C)c3)nc2n1-c1ccc(=O)n(C(C)C)n1 [Compound 138] | ≥ 7.52 | 5.52 to 6.00
43 | C=CCn1c(=O)c2cnc(Nc3ccc4c(N5CCC(N(C)C)CC5)c[nH]c4c3)nc2n1-c1ccc(=O)n(C(C)C)n1 [Compound 263] | ≥ 7.52 | ≥ 6.00
44 | CC(C)n1c(=O)c2cnc(Nc3ccc4c(c3)CN(C)CC43CC3)nc2n1-c1ccc(=O)n(C(C)(C)C)n1 [Compound 291] | ≥ 7.52 | ≥ 6.00
45 | CCn1c(=O)c2cnc(Nc3ccc4c(c3)CN(C)CC43CC3)nc2n1-c1ccc(=O)n(C(C)(C)C)c1 [Compound 333] | ≥ 7.52 | ≥ 6.00
46 | C=CCn1c(=O)c2cnc(Nc3ccc4c(ccn4C4CCN(C)CC4)c3)nc2n1-c1ccc(=O)n(C(C)C)n1 [Compound 270] | ≥ 7.52 | ≥ 6.00
47 | C=CCn1c(=O)c2cnc(Nc3ccc(N4CC5(CCCN5C)C4)c(C)c3)nc2n1-c1ccc(=O)n(C(C)C)n1 [Compound 188] | ≥ 7.52 | ≥ 6.00
48 | C=CCn1c(=O)c2cnc(Nc3ccc4c(c3)CCNC4)nc2n1-c1ccc(=O)n(C(C)C)n1 [Compound 228] | ≥ 7.52 | ≥ 6.00
49 | C=CCn1c(=O)c2cnc(Nc3ccc(N4CCC(NC)CC4)cc3)nc2n1-c1ccc(=O)n(C(C)C)n1 [Compound 104] | ≥ 7.52 | ≥ 6.00
50 | C=CCn1c(=O)c2cnc(Nc3ccc(N4CCN(C)CC4)cc3)nc2n1-c1cn(C(C)C)c(=O)cc1C [Compound 29] | ≥ 7.52 | ≥ 6.00
51 | C=CCn1c(=O)c2cnc(Nc3ccc(N4CCC(C)(N(C)C)CC4)c(C)c3)nc2n1-c1ccc(=O)n(C(C)C)n1 [Compound 114] | ≥ 7.52 | ≥ 6.00
52 | CCn1c(=O)c2cnc(Nc3ccc(C4CCN(C)CC4)c(C)c3)nc2n1-c1ccc(=O)n(C(C)C)n1 [Compound 276] | ≥ 7.52 | ≥ 6.00
